Measured values reported in patent US10561115B2 (priority 2016, dated 2020).
“And” between values parts separate entries of the source, which are not always exact repeats. Equal values may be shown once.

Experiments:
[1] = tested on: wild type Chlorella sorokiniana; experiment: Growth (OD at 750 nm) of wild type Chlorella sorokiniana in the presence of propiconazole; assay type: cell-based; conditions: 10 μM propiconazole; culture typically crashes after a few days
Experimental: (§1) Chlorella sorokiniana cells (Wild type) and propiconazole resistant mutants of Chlorella species (PcZ-1) were inoculated at 0.1-0.15 OD@750 nm (each set in triplicates). To verify the effect of methanol (propiconazole was dissolved in methanol), one set was treated with 0.1% methanol. One set of flasks in triplicate of Wild type and PcZ-1 mutants were inoculated with and without 10 μM propiconazole. After inoculation flasks were kept in 12 h light/12 hour dark cycles of white light in an incubator shaker at 100 rpm. The temperature was 28° C., 70% humidity and 2% ambient CO2. 3 mL sample was removed each day, to determine the Optical density (OD) of the culture at 750 nm. The results obtained are as illustrated in FIG. 1.
FIG. 1 illustrates a graph of the growth comparison between wild type Chlorella sorokiniana and propiconazole resistant mutants of Chlorella species Chlorella sorokiniana mutant PcZ-1, in the presence of propiconazole, wherein A represents wild type Chlorella sorokiniana grown in the absence of propiconazole, B represents wild type Chlorella sorokiniana grown in the presence of 0.1% methanol, C represents wild type Chlorella sorokiniana grown in the presence of 10 μM propiconazole, D represents PcZ-1 grown in the absence of propiconazole, E represents PcZ-1 grown in the presence of 0.1% methanol, and F represents PcZ-1 grown in the presence of 10 μM propiconazole. […]

[2] = tested on: grazers; conditions: general statement, no test described; cited from earlier work
[3] = tested on: propiconazole resistant mutants of Chlorella species (PcZ-1); experiment: Growth (OD at 750 nm) of PcZ-1 mutant with and without 10 μM propiconazole, compared with wild type; assay type: cell-based, Chlorella sorokiniana; conditions: for Average % increase PcZ-1 + 10 uM PcZ / % increase PcZ-1 + 10 μM PcZ: PcZ-1 with 10 μM propiconazole vs wild type without propiconazole; for % increase PcZ-1 + 10 μM PcZ: individual replicates, listed as PcZ
Experimental: as §1
FIG. 1 illustrates a graph of the growth comparison between wild type Chlorella sorokiniana and propiconazole resistant mutants of Chlorella species Chlorella sorokiniana mutant PcZ-1, in the presence of propiconazole, wherein A represents wild type Chlorella sorokiniana grown in the absence of propiconazole, B represents wild type Chlorella sorokiniana grown in the presence of 0.1% methanol, C represents wild type Chlorella sorokiniana grown in the presence of 10 μM propiconazole, D represents PcZ-1 grown in the absence of propiconazole, E represents PcZ-1 grown in the presence of 0.1% methanol, and F represents PcZ-1 grown in the presence of 10 μM propiconazole. […] The propiconazole resistant mutants of Chlorella species (PcZ-1) was not affected by the presence of propiconazole, and continued to grow.

CCCC1COC(Cn2cncn2)(c2ccc(Cl)cc2Cl)O1 (stereo not drawn) [propiconazole, Propiconazole]
Growth of the wild type Chlorella sorokiniana in the presence of propiconazole [1]: inhibited | Concentration at which propiconazole is a potent grazicide [2]: ≥ 0.5 ppm | Growth of PcZ-1 in the presence of propiconazole ([3]; 10 μM propiconazole, continued to grow): not affected | Average % increase PcZ-1 + 10 uM PcZ ([3]; day 4): 60.2% | % increase PcZ-1 + 10 μM PcZ ([3]; day 4): 45.5% and 66.7% and 68.6% | Average % increase PcZ-1 + 10 uM PcZ ([3]; day 6): 27.1% | % increase PcZ-1 + 10 μM PcZ ([3]; day 6): 17.3% and 38.7% and 25.4% | Average % increase PcZ-1 + 10 uM PcZ ([3]; day 7): 21.1% | % increase PcZ-1 + 10 μM PcZ ([3]; day 7): 10.6% and 29.4% and 23.2%
